The subject of one series is Cos-7 cells. The experiment in a line: Cytotoxicity to Cos-7 cells. The class given is cell-based, African green monkey (Cercopithecus aethiops).
The next series has as its system CaV2.2. Conditions: read-out: CaV2.2 IC50; whole-cell patch clamp; cited from earlier work.

SMILES strings stand for the structures.

For `CN(C)CCCOc1ccc(C(=O)Nc2ccccc2Oc2ccccc2)cc1` [7b], the “concentration up to which well tolerated by Cos-7 cells” value in the series on Cos-7 cells was no more than 100 µM. In general, IC50 refers to the concentration needed to halve the response being measured. With `NC(N)=NCCCOc1ccc(C(=O)Nc2ccccc2Oc2ccc(F)cc2)cc1` [MONIRO-1 6a], in the series on CaV2.2, the IC50 was 34 µM.

The values above are taken from PMC10953480 (RSC Medicinal Chemistry, 2024).
